# Results as given in publication PMC8330742, “New benzothieno[2,3-c]pyridines as non-steroidal CYP17 inhibitors: design, synthesis, anticancer screening, apoptosis induction, and in silico ADME profile studies” (Journal of Enzyme Inhibition and Medicinal Chemistry, 2021).
# Experiments:
# [1] = test system: CCRF-CEM; assay: NCI-60 SRB screen; assay type: cell-based; conditions: single dose 10^−5 M
# [2] = test system: HL-60(TB); assay: NCI-60 SRB screen; assay type: cell-based, human; conditions: HL-60 (TB); single dose 10^−5 M
# [3] = test system: K-562; assay: NCI-60 SRB screen; assay type: cell-based, human; conditions: K-562; single dose 10^−5 M
# [4] = test system: MOLT-4; assay: NCI-60 SRB screen; assay type: cell-based; conditions: MOLT-4; single dose 10^−5 M
# [5] = test system: RPMI-8226; assay: NCI-60 SRB screen; assay type: cell-based; conditions: RPMI-8226; single dose 10^−5 M
# [6] = test system: SR; assay: NCI-60 SRB screen; assay type: cell-based; conditions: single dose 10^−5 M
# [7] = test system: A549/ATCC; assay: NCI-60 SRB screen; assay type: cell-based, human; conditions: single dose 10^−5 M
# [8] = test system: EKVX; assay: NCI-60 SRB screen; assay type: cell-based, human; conditions: single dose 10^−5 M
# [9] = test system: HOP-62; assay: NCI-60 SRB screen; assay type: cell-based, human; conditions: HOP-62; single dose 10^−5 M
# [10] = test system: HOP-92; assay: NCI-60 SRB screen; assay type: cell-based, human; conditions: HOP-92; single dose 10^−5 M
# [11] = test system: NCI-H226; assay: NCI-60 SRB screen; assay type: cell-based, human; conditions: NCI-H226; single dose 10^−5 M
# [12] = test system: NCI-H23; assay: NCI-60 SRB screen; assay type: cell-based, human; conditions: NCI-H23; single dose 10^−5 M
# [13] = test system: NCI-H322M; assay: NCI-60 SRB screen; assay type: cell-based, human; conditions: single dose 10^−5 M
# [14] = test system: NCI-H460; assay: NCI-60 SRB screen; assay type: cell-based, human; conditions: NCI-H460; single dose 10^−5 M
# [15] = test system: NCI-H522; assay: NCI-60 SRB screen; assay type: cell-based, human; conditions: NCI-H522; single dose 10^−5 M
# [16] = test system: COLO 205; assay: NCI-60 SRB screen; assay type: cell-based, human; conditions: COLO 205; single dose 10^−5 M
# [17] = test system: HCC-2998; assay: NCI-60 SRB screen; assay type: cell-based, human; conditions: HCC-2998; single dose 10^−5 M
# [18] = test system: HCT-116; assay: NCI-60 SRB screen; assay type: cell-based, human; conditions: HCT-116; single dose 10^−5 M
# [19] = test system: HCT-15; assay: NCI-60 SRB screen; assay type: cell-based, human; conditions: HCT-15; single dose 10^−5 M
# [20] = test system: HT-29; assay: NCI-60 SRB screen; assay type: cell-based; conditions: HT-29; single dose 10^−5 M
# [21] = test system: KM12; assay: NCI-60 SRB screen; assay type: cell-based, human; conditions: KM12; single dose 10^−5 M
# [22] = test system: SW-620; assay: NCI-60 SRB screen; assay type: cell-based; conditions: SW-620; single dose 10^−5 M
# [23] = test system: SF-268; assay: NCI-60 SRB screen; assay type: cell-based, human; conditions: SF-268; single dose 10^−5 M
# [24] = test system: SF-295; assay: NCI-60 SRB screen; assay type: cell-based, human; conditions: SF-295; single dose 10^−5 M
# [25] = test system: SF-539; assay: NCI-60 SRB screen; assay type: cell-based, human; conditions: SF-539; single dose 10^−5 M
# [26] = test system: SNB-19; assay: NCI-60 SRB screen; assay type: cell-based; conditions: SNB-19; single dose 10^−5 M
# [27] = test system: SNB-75; assay: NCI-60 SRB screen; assay type: cell-based, human; conditions: SNB-75; single dose 10^−5 M
# [28] = test system: U251; assay: NCI-60 SRB screen; assay type: cell-based, human; conditions: U251; single dose 10^−5 M
# [29] = test system: LOX IMVI; assay: NCI-60 SRB screen; assay type: cell-based, human; conditions: single dose 10^−5 M
# [30] = test system: MALME-3M; assay: NCI-60 SRB screen; assay type: cell-based, human; conditions: single dose 10^−5 M
# [31] = test system: M14; assay: NCI-60 SRB screen; assay type: cell-based, human; conditions: M14; single dose 10^−5 M
# [32] = test system: MDA-MB-435; assay: NCI-60 SRB screen; assay type: cell-based; conditions: MDA-MB435; single dose 10^−5 M
# [33] = test system: SK-MEL-2; assay: NCI-60 SRB screen; assay type: cell-based, human; conditions: SK-MEL-2; single dose 10^−5 M
# [34] = test system: SK-MEL-28; assay: NCI-60 SRB screen; assay type: cell-based; conditions: SK-MEL-28; single dose 10^−5 M
# [35] = test system: SK-MEL-5; assay: NCI-60 SRB screen; assay type: cell-based, human; conditions: SK-MEL-5; single dose 10^−5 M
# [36] = test system: UACC-257; assay: NCI-60 SRB screen; assay type: cell-based, human; conditions: UACC-275 (so in the source); single dose 10^−5 M
# [37] = test system: UACC-62; assay: NCI-60 SRB screen; assay type: cell-based, human; conditions: UACC-62; single dose 10^−5 M
# [38] = test system: IGROV1; assay: NCI-60 SRB screen; assay type: cell-based, human; conditions: IGROV1; single dose 10^−5 M
# [39] = test system: OVCAR-3; assay: NCI-60 SRB screen; assay type: cell-based, human; conditions: OVCAR-3; single dose 10^−5 M
# [40] = test system: OVCAR-4; assay: NCI-60 SRB screen; assay type: cell-based, human; conditions: OVCAR-4; single dose 10^−5 M
# [41] = test system: OVCAR-5; assay: NCI-60 SRB screen; assay type: cell-based, human; conditions: OVCAR-5; single dose 10^−5 M
# [42] = test system: OVCAR-8; assay: NCI-60 SRB screen; assay type: cell-based, human; conditions: OVCAR-8; single dose 10^−5 M
# [43] = test system: NCI/ADR-RES; assay: NCI-60 SRB screen; assay type: cell-based, human; conditions: single dose 10^−5 M
# [44] = test system: SK-OV-3; assay: NCI-60 SRB screen; assay type: cell-based, human; conditions: SK-OV-3; single dose 10^−5 M
# [45] = test system: 786-0; assay: NCI-60 SRB screen; assay type: cell-based; conditions: 786-0; single dose 10^−5 M
# [46] = test system: A498; assay: NCI-60 SRB screen; assay type: cell-based, human; conditions: A498; single dose 10^−5 M
# [47] = test system: ACHN; assay: NCI-60 SRB screen; assay type: cell-based; conditions: single dose 10^−5 M
# [48] = test system: CAKI-1; assay: NCI-60 SRB screen; assay type: cell-based, human; conditions: CAKI-1; single dose 10^−5 M
# [49] = test system: RXF 393; assay: NCI-60 SRB screen; assay type: cell-based, human; conditions: RXF 393; single dose 10^−5 M
# [50] = test system: SN12C; assay: NCI-60 SRB screen; assay type: cell-based, human; conditions: SN 12 C; single dose 10^−5 M
# [51] = test system: TK-10; assay: NCI-60 SRB screen; assay type: cell-based, human; conditions: TK-10; single dose 10^−5 M
# [52] = test system: UO-31; assay: NCI-60 SRB screen; assay type: cell-based, human; conditions: UO-31; single dose 10^−5 M
# [53] = test system: panel of 60 cancer cell lines; assay: NCI-60 SRB screen, mean or range over the panel; assay type: cell-based, human; conditions: mean over the cell lines; single dose 10^−5 M
structure (smiles),measurement,setting,value
COc1ccc(C2NC(=O)Cc3c2sc2c(F)cccc32)c(OC)c1 (stereo not shown) [Compound 3a],Growth inhibition (%),[1],−5.88%
same,Growth inhibition (%),[2],−7.79%
same,Growth inhibition (%),[3],12.84%
same,Growth inhibition (%),[4],2.64%
same,Growth inhibition (%),[5],−2.54%
same,Growth inhibition (%),[6],28.66%
same,Growth inhibition (%),[7],−10.00%
same,Growth inhibition (%),[8],7.10%
same,Growth inhibition (%),[9],11.63%
same,Growth inhibition (%),[10],2.88%
same,Growth inhibition (%),[11],13.11%
same,Growth inhibition (%),[12],0.15%
same,Growth inhibition (%),[13],−3.18%
same,Growth inhibition (%),[14],2.47%
same,Growth inhibition (%),[15],4.48%
same,Growth inhibition (%),[16],−16.49%
same,Growth inhibition (%),[17],−15.27%
same,Growth inhibition (%),[18],−0.50%
same,Growth inhibition (%),[19],−3.42%
same,Growth inhibition (%),[20],−7.86%
same,Growth inhibition (%),[21],7.40%
same,Growth inhibition (%),[22],3.98%
same,Growth inhibition (%),[23],8.45%
same,Growth inhibition (%),[24],−2.52%
same,Growth inhibition (%),[25],11.49%
same,Growth inhibition (%),[26],1.20%
same,Growth inhibition (%),[27],17.27%
same,Growth inhibition (%),[28],2.07%
same,Growth inhibition (%),[29],5.88%
same,Growth inhibition (%),[30],15.80%
same,Growth inhibition (%),[31],4.96%
same,Growth inhibition (%),[32],9.40%
same,Growth inhibition (%),[33],−25.13%
same,Growth inhibition (%),[34],−11.36%
same,Growth inhibition (%),[35],2.83%
same,Growth inhibition (%),[36],−6.31%
same,Growth inhibition (%),[37],10.62%
same,Growth inhibition (%),[38],8.40%
same,Growth inhibition (%),[39],−0.33%
same,Growth inhibition (%),[40],3.35%
same,Growth inhibition (%),[41],−3.20%
same,Growth inhibition (%),[42],−3.27%
same,Growth inhibition (%),[43],−2.37%
same,Growth inhibition (%),[44],−0.85%
same,Growth inhibition (%),[45],−7.41%
same,Growth inhibition (%),[46],9.33%
same,Growth inhibition (%),[47],1.30%
same,Growth inhibition (%),[48],23.33%
same,Growth inhibition (%),[49],−2.63%
same,Growth inhibition (%),[50],−0.49%
same,Growth inhibition (%),[51],−29.42%
same,Growth inhibition (%),[52],32.68%
same,Mean growth inhibition (%),[53],6.67%
O=C1Cc2c(sc3c(F)cccc23)C(c2ccccc2[N+](=O)[O-])N1 (stereo not shown) [Compound 3c],Growth inhibition (%),[1],−10.16%
same,Growth inhibition (%),[2],−15.87%
same,Growth inhibition (%),[3],2.86%
same,Growth inhibition (%),[4],−5.89%
same,Growth inhibition (%),[5],4.62%
same,Growth inhibition (%),[6],0.60%
same,Growth inhibition (%),[7],−5.43%
same,Growth inhibition (%),[8],15.84%
same,Growth inhibition (%),[9],8.52%
same,Growth inhibition (%),[10],7.78%
same,Growth inhibition (%),[11],20.72%
same,Growth inhibition (%),[12],1.41%
same,Growth inhibition (%),[13],1.00%
same,Growth inhibition (%),[14],23.13%
same,Growth inhibition (%),[15],−1.98%
same,Growth inhibition (%),[16],−12.74%
same,Growth inhibition (%),[17],−18.72%
same,Growth inhibition (%),[18],14.07%
same,Growth inhibition (%),[19],−10.00%
same,Growth inhibition (%),[20],−12.09%
same,Growth inhibition (%),[21],−0.49%
same,Growth inhibition (%),[22],20.70%
same,Growth inhibition (%),[23],6.16%
same,Growth inhibition (%),[24],−0.58%
same,Growth inhibition (%),[25],10.42%
same,Growth inhibition (%),[26],−0.33%
same,Growth inhibition (%),[27],10.03%
same,Growth inhibition (%),[28],14.88%
same,Growth inhibition (%),[29],2.71%
same,Growth inhibition (%),[30],5.53%
same,Growth inhibition (%),[31],−0.72%
same,Growth inhibition (%),[32],−7.97%
same,Growth inhibition (%),[33],−25.53%
same,Growth inhibition (%),[34],−20.20%
same,Growth inhibition (%),[35],2.72%
same,Growth inhibition (%),[36],−19.98%
same,Growth inhibition (%),[37],12.83%
same,Growth inhibition (%),[38],34.55%
same,Growth inhibition (%),[39],2.18%
same,Growth inhibition (%),[40],7.00%
same,Growth inhibition (%),[41],−8.05%
same,Growth inhibition (%),[42],−7.33%
same,Growth inhibition (%),[43],−5.76%
same,Growth inhibition (%),[44],6.94%
same,Growth inhibition (%),[45],−9.68%
same,Growth inhibition (%),[46],−15.47%
same,Growth inhibition (%),[47],−0.56%
same,Growth inhibition (%),[48],24.17%
same,Growth inhibition (%),[49],−24.83%
same,Growth inhibition (%),[50],0.94%
same,Growth inhibition (%),[51],−41.81%
same,Growth inhibition (%),[52],30.62%
same,Mean growth inhibition (%),[53],1.33%
